In ChEMBL document CHEMBL1201862, “PubChem BioAssay data set” (2004):
Active and inactive are the calls of the source.

Assays:
[1] = target: Induced myeloid leukemia cell differentiation protein Mcl-1 (Homo sapiens, UniProt Q07820); type: functional
[2] = target: T1, Carboxy-terminal domain RNA polymerase II polypeptide A small phosphatase 1 (Homo sapiens, UniProt Q9GZU7); assay: CTDSP1 inhibitors, concentration-response, biochemical, absorbance readout, ultra-high-throughput screen actives (AID 540297); type: functional
T1 sequence (Q9GZU7 whole entry): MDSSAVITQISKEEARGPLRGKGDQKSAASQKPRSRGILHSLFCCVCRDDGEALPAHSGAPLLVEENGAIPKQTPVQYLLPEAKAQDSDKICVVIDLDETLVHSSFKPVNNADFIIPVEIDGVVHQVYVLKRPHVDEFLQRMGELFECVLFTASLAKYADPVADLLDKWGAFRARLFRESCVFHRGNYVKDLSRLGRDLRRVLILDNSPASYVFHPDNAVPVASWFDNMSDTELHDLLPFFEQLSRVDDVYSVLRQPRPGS

[3] = target: DNA (cytosine-5)-methyltransferase 1 (Homo sapiens, UniProt P26358); assay: inhibition of DNA methylation by DNMT1 – biochemical, fluorescent molecular beacon, confirmation (AID 602386); type: functional
Sequence of DNA (cytosine-5)-methyltransferase 1 (P26358 whole entry): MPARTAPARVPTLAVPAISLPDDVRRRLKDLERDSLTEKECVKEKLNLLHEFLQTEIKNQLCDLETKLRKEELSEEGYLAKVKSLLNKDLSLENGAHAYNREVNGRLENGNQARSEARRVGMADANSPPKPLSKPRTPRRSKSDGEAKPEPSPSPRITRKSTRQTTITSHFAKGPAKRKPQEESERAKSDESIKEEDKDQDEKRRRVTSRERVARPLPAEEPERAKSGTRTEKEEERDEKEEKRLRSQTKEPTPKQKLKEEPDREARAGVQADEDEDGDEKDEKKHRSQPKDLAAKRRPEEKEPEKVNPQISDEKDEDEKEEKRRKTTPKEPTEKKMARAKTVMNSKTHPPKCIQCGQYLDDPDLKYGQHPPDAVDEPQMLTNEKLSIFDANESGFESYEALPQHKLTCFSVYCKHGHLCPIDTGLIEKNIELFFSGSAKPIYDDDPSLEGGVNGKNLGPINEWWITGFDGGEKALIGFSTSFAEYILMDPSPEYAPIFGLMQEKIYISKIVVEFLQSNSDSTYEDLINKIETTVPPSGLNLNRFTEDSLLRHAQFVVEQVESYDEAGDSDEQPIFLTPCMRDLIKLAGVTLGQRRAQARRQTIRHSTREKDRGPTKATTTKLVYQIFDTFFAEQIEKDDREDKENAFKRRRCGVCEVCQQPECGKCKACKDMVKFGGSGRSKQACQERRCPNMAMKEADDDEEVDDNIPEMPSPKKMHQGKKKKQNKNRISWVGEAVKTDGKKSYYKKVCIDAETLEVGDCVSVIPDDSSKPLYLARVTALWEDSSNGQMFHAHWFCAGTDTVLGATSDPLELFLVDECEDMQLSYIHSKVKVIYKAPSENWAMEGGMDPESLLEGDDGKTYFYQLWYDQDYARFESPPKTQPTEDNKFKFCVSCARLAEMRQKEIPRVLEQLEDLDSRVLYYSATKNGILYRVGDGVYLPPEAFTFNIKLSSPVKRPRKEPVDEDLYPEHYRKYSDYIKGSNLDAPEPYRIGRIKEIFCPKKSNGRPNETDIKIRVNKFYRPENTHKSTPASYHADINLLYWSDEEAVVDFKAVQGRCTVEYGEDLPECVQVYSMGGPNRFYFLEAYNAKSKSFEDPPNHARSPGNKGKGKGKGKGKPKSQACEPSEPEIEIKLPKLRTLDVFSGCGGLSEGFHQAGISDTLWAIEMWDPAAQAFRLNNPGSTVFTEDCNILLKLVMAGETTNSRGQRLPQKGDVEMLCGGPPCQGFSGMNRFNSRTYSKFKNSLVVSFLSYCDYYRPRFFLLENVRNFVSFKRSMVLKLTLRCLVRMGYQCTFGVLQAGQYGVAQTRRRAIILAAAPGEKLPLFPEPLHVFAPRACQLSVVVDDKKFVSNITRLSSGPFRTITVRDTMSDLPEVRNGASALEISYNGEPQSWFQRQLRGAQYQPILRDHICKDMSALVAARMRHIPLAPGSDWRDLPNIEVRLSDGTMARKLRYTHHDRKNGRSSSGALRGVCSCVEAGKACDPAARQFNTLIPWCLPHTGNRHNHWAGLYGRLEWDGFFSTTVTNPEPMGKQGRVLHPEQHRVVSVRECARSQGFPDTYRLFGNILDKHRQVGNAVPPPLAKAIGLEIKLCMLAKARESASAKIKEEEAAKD

[4] = target: DNA dC->dU-editing enzyme APOBEC-3A (Homo sapiens, UniProt P31941); assay: A3A deaminase inhibition for selectivity – biochemical, dose response (AID 504722); type: functional
Sequence of DNA dC->dU-editing enzyme APOBEC-3A (P31941 whole entry): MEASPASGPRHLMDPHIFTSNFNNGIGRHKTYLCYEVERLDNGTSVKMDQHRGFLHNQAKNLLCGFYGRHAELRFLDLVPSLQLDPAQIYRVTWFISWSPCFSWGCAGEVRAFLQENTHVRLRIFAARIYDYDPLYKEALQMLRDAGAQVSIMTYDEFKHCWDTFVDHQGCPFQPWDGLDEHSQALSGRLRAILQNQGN

[5] = target: T2, Small ubiquitin-related modifier 1 (Homo sapiens, UniProt P63165); assay: SUMO1 protein interaction blockers, potency – biochemical, fluorescence polarization, uHTS hits, dose response (AID 624382); type: functional; conditions: read-out: IC50_Mean
T2 sequence (P63165 whole entry): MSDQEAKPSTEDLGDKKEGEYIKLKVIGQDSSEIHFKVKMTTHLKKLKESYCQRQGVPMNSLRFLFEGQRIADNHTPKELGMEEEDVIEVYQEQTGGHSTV

[6] = target: T2, Small ubiquitin-related modifier 1; assay: SUMO1 protein-protein binding blockers, potency – biochemical, FRET, dose response (AID 624383); type: functional; conditions: read-out: IC50_Mean
[7] = target: T3, Apoptotic protease-activating factor 1 (Homo sapiens, UniProt O14727); assay: activation of Apaf-1 mediated apoptosis – fluorescent, uHTS hits, dose response (AID 588554); type: functional
T3 sequence (O14727 whole entry): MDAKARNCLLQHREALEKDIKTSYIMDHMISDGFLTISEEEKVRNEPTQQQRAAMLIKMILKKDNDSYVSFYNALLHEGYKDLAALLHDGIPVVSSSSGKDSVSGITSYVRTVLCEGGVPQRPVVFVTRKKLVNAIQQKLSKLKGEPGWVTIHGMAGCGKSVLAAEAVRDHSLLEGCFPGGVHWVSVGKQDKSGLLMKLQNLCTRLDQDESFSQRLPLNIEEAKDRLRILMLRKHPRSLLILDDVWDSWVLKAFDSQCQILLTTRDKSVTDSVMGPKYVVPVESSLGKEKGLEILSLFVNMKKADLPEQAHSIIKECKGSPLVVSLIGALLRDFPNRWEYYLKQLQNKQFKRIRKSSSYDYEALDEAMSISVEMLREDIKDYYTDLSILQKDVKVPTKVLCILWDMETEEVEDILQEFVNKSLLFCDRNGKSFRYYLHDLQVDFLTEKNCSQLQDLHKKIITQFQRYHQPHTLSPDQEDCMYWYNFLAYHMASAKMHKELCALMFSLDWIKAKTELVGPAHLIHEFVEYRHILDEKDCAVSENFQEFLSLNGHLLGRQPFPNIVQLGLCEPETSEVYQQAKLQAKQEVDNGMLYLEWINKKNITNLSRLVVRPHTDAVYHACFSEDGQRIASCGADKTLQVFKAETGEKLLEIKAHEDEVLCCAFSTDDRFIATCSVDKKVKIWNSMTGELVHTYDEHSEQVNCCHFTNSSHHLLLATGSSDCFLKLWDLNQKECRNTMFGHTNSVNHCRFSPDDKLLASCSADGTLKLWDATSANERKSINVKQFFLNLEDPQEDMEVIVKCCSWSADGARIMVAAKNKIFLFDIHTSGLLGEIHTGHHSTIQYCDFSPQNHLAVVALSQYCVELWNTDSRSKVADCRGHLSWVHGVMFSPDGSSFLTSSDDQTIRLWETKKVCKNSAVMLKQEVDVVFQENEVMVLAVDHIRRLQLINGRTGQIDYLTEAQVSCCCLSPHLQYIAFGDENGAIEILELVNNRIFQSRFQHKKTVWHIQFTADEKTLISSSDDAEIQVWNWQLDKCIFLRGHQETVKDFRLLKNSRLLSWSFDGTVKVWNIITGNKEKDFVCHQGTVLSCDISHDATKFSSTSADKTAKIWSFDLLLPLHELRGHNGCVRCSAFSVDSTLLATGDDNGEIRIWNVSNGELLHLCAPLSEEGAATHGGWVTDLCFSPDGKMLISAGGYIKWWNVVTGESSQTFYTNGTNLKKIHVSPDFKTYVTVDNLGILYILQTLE

[8] = target: DNA dC->dU-editing enzyme APOBEC-3G (Homo sapiens, UniProt Q9HC16); assay: Dose Response confirmation of small molecule APOBEC3G DNA Deaminase Inhibitors via a fluorescence-based single-stranded DNA deaminase assay. [Related pubchem assays (depositor defined):AID493012, AID493028]; type: functional
[9] = Luminescence Cell-Based Secondary HTS screen to identify cytotoxic compounds of NIH3T3 cells. [Related pubchem assays: 1885, 1968 ]; type: functional
[10] = Trypanosoma cruzi growth suppression in host cells – NIH3T3 host cells, beta-gal luminescence, confirmation (AID 2044); type: functional, cell-based;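 also: intracellular parasites grown in NIH/3T3 mouse fibroblasts as host cells; luminescent beta-galactosidase reporter signal from transgenic T. cruzi replicating inside host cells; inhibitors lower the luminescence signal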
[11] = NIH3T3 cell viability loss – ATP luminescence, mouse fibroblasts, counter-screen, dose response (AID 2010); type: functional, cell-based;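 also: cells exposed to compound for about 90 hours before reading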
[12] = T. cruzi infection blockers in NIH3T3 cells – beta-gal luminescence, NIH3T3 host cells, confirmation (AID 2630); type: functional, cell-based; conditions: Mus musculus
[13] = Luminescence Cell-Based/Microorganism Confirmation at Dose of Inhibitors of Trypanosoma cruzi Infection. [Related pubchem assays: 1885, 1968 ]; type: functional
[14] = target: Dual specificity tyrosine-phosphorylation-regulated kinase 1A (Rattus norvegicus, UniProt Q63470); type: biochemical, Homo sapiens
[15] = target: Dual specificity protein kinase CLK1 (Homo sapiens, UniProt P49759); assay: inhibition of human CLK1 activity – biochemical, cherry-picked samples, selectivity assay for Dyrk1A inhibitor project, dose response (AID 588811)
Sequence of Dual specificity protein kinase CLK1 (P49759 whole entry): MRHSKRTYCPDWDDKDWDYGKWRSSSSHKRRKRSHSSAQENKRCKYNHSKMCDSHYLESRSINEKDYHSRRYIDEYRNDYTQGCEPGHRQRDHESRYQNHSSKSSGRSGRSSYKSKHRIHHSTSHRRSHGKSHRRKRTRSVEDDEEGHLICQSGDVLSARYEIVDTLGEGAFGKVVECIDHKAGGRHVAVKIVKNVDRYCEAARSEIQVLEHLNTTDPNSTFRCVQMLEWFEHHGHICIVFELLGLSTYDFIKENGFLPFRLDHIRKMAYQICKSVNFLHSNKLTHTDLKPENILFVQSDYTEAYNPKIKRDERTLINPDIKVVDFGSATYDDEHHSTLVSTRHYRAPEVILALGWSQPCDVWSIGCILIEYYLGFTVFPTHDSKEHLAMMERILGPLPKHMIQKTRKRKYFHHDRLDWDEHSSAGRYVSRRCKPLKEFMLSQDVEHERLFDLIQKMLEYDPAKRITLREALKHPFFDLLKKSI

[16] = target: T4, Dual specificity protein phosphatase 6 (Rattus norvegicus, UniProt Q64346)
T4 sequence (Q64346 whole entry): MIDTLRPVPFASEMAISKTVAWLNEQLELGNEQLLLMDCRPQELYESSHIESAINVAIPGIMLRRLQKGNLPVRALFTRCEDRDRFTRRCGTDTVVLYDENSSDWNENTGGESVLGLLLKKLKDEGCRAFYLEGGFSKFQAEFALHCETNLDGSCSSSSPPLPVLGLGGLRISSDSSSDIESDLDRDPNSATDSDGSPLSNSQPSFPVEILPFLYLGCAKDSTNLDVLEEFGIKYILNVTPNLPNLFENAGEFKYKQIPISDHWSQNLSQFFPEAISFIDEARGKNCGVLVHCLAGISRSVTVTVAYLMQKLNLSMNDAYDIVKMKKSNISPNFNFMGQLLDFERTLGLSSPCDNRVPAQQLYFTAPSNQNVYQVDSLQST

[17] = target: T4, Dual specificity protein phosphatase 6; type: functional
[18] = target: T5, Tyrosine-protein phosphatase non-receptor type 7 (Homo sapiens, UniProt P35236); type: functional
T5 sequence (P35236 whole entry): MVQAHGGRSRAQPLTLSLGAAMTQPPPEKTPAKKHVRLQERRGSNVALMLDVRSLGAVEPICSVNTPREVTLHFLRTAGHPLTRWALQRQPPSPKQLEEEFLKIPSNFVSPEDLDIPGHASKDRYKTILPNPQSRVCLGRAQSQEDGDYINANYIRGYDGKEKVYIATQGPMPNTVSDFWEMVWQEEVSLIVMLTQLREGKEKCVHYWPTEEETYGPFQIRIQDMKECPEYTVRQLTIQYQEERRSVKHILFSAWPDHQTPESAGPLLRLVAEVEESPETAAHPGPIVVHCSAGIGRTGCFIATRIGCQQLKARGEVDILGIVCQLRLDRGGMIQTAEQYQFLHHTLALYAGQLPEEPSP

[19] = target: Glyceraldehyde-3-phosphate dehydrogenase (Homo sapiens, UniProt P04406)
Sequence of Glyceraldehyde-3-phosphate dehydrogenase (P04406 whole entry): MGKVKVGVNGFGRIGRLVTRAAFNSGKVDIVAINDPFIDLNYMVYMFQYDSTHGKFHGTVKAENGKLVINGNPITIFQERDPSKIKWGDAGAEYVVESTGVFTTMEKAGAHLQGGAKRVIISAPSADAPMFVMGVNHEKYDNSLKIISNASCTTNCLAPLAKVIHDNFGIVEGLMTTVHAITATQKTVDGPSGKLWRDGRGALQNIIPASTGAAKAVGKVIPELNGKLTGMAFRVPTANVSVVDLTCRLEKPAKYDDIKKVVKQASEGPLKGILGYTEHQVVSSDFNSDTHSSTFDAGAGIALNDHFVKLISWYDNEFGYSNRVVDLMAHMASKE

Vero [20] = assay: cells; type: functional, cell-based; conditions: Chlorocebus sabaeus
[21] = target: T6, Heat shock factor protein 1 (Mus musculus, UniProt P38532); assay: enhancement of HSF1-driven luciferase signal – cell-based, NIH3T3, luminescence, dose retest, confirmation (AID 435004); type: functional;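 also: stress induced by proteasome inhibitor MG132 added 30 min after compound; luciferase reporter driven by HSF1 response element in NIH3T3 cells; actives raise luminescence as potentiators of the MG132 stress response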
T6 sequence (P38532 whole entry): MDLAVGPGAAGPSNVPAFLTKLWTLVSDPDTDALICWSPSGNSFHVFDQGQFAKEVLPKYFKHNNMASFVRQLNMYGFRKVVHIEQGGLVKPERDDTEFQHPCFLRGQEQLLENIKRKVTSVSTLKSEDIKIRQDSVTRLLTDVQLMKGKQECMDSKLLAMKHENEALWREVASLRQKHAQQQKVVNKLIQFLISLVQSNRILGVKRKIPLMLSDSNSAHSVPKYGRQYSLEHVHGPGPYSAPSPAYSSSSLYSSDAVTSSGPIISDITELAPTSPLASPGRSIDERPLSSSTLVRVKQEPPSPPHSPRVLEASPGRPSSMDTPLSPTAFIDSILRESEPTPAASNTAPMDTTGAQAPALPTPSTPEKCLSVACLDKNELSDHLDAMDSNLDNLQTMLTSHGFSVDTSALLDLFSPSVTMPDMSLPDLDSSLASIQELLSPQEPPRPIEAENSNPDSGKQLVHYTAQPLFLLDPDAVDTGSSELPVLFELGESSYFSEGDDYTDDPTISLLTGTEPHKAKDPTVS

[22] = nonselective StAR promoter luciferase inhibitors – cell-based, luminescence, luciferase reporter, counter-screen for LRH-1 inverse agonist project, dose response (AID 651969); type: functional
[23] = target: Nuclear receptor subfamily 5 group A member 2 (Homo sapiens, UniProt O00482); type: functional, cell-based;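 also: HEK293T cells transfected with LRH-1 and a StAR promoter luciferase reporter; potency for inhibitors that lower LRH-1 driven reporter light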
Sequence of Nuclear receptor subfamily 5 group A member 2 (O00482 whole entry): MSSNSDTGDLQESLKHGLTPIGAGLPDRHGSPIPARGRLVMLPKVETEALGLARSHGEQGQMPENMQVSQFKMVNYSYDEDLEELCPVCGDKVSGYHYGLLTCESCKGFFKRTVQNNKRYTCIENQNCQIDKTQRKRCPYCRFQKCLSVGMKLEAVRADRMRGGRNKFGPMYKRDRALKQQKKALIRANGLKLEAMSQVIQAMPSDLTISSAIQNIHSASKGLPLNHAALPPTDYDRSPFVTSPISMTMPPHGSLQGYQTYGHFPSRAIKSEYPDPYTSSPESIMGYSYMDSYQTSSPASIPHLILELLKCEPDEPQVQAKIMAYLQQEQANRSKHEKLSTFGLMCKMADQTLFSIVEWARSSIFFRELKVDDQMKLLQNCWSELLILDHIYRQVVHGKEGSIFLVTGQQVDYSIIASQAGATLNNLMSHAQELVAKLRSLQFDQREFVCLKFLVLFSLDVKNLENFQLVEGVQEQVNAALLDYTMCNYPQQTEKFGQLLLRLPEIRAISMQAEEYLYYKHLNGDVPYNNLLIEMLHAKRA

Steroidogenic factor 1 = Steroidogenic factor 1 (Homo sapiens, UniProt Q13285); assay: Counterscreen for inverse agonists of the liver receptor homolog-1 (LRH-1; NR5A2): Luminescence-based cell-based high throughput dose response assay to identify inverse agonists of the Steroidogenic Factor 1 Nuclear Receptor (SF1; NR5A1).; type: functional
Sequence of Steroidogenic factor 1 (Q13285 whole entry): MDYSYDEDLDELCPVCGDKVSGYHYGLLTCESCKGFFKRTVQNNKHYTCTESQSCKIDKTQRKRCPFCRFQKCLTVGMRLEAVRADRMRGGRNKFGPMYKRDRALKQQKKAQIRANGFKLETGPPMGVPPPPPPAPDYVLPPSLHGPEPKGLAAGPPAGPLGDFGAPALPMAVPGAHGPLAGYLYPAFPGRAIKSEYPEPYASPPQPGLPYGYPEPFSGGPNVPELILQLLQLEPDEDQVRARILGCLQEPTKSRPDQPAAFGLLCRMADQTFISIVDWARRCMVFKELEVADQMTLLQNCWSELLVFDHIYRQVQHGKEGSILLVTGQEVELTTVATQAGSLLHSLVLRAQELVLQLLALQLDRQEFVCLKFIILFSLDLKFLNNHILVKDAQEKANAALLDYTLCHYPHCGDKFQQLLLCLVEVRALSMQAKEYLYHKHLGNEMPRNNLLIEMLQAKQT

Vero [24] = assay: cells; type: functional; conditions: Chlorocebus sabaeus
[25] = target: Nuclear receptor subfamily 0 group B member 1 (Homo sapiens, UniProt P51843); assay: Luminescence-based cell-based high throughput dose response assay for inhibitors of the orphan nuclear receptor subfamily 0, group B, member 1 (DAX1; NR0B1). [Related pubchem assays (depositor defined):AID504766, AID504790]; type: functional
Sequence of Nuclear receptor subfamily 0 group B member 1 (P51843 whole entry): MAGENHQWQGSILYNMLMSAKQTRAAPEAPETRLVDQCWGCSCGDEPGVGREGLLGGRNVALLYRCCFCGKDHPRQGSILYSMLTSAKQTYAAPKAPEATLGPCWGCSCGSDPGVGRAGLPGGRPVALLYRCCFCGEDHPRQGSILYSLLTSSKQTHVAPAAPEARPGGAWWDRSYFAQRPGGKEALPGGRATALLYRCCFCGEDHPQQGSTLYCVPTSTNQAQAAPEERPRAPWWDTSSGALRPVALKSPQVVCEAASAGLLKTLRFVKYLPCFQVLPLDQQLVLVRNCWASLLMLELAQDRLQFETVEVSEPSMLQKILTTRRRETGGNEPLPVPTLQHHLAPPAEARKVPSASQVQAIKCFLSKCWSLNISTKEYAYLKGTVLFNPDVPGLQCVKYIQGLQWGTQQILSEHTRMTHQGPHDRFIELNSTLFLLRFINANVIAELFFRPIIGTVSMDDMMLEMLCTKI

HEK293 = assay: cells; type: functional, cell-based; conditions: Homo sapiens
[26] = Luminescence Cell-Based Dose Response Follow up to Identify Inhibitors of Platelet Dense Granule Release. [Related pubchem assays (depositor defined):AID1663, AID1678, AID1889, AID2519]; type: functional
[27] = blockers of SFLLRN-triggered platelet ATP secretion – cell-based, human platelets, luminescence, dry powder, dose response (AID 493100); type: functional
Candida albicans [28] = assay: antifungal activity against resistant Candida strain – CaCi-8, fluconazole, Alamar Blue, dry powder, dose response (AID 488807); type: functional, organism-based
Candida albicans [29] = assay: fluconazole-resistant Candida strain growth inhibitors – CaCi-8 strain, dry powder, set 4, dose response (AID 488950); type: functional, organism-based
Candida albicans [30] = assay: C. albicans growth inhibition with fluconazole – CaCi-2 strain, Alamar Blue, dry powder, set 4, dose response (AID 488943); type: functional, organism-based
Candida albicans [31] = assay: single-agent toxicity toward C. albicans – CaCi-2 strain, no fluconazole, dry powder, set 4, counter-screen for reversing antifungal drug resistance, dose response (AID 488932); type: functional, organism-based
Candida albicans [32] = assay: Candida growth inhibition combined with fluconazole – CaCi-2 strain, Alamar Blue, dry powder, set 3, dose response (AID 488907); type: functional, organism-based
[33] = target: Dual specificity protein phosphatase 3 (Homo sapiens, UniProt P51452); assay: SAR VHR1 Fluorescent Assay for In Vitro dose response studies Set 3. [Related pubchem assays (depositor defined):AID1654, AID1661, AID1878]; type: functional
Sequence of Dual specificity protein phosphatase 3 (P51452 whole entry): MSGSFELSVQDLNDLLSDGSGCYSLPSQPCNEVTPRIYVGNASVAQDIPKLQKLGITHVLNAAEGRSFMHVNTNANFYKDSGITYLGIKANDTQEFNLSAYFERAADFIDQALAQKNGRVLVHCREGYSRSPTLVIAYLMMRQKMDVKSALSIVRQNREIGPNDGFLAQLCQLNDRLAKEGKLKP

Sequence of Induced myeloid leukemia cell differentiation protein Mcl-1 (Q07820 whole entry, the tested form may be a part): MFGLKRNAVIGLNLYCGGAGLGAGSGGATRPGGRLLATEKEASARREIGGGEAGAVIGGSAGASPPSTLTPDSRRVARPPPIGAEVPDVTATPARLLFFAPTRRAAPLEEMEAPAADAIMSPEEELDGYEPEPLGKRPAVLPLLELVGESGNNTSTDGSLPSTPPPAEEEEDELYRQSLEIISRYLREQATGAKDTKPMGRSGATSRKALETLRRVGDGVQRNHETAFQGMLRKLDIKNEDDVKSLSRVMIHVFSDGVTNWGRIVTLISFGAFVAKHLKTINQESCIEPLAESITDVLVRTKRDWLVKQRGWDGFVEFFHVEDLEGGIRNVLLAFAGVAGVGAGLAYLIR

SMILES: C=C(C)C(=O)Nc1cccc(C2=NOC3(C2)C[C@@H](C(N)=O)N(C(=O)C(=C)C)C3)c1 (stereo partly drawn)
- IC50 [1]: 3.08 µM (not active)
- IC50 [2]: 1.89 µM (active)
- IC50 [3]: 4.95 µM (active)
- IC50 [4]: > 100 µM (inactive)
- IC50 [5]: > 66.6 µM (inactive)
- IC50 [6]: 2.56 µM (active)
- EC50 [7]: 1.24 µM (active)
- IC50 [8]: 5.94 µM (active)

SMILES: CC(C)=CCCC(C)CN(C)CCc1ccccn1 (stereo not drawn)
- EC50 [9]: > 195 µM (not active)
- EC50 [10]: < 0.1 µM (active)
- EC50 (cells): 0.083 µM (active)
- EC50 [11]: > 60 µM (not active)
- EC50 [12]: 0.027 µM (active)
- EC50 [13]: 0.027 µM (active)

SMILES: CC(=O)Nc1ccc(Nc2cc(C)nc3c(-c4ccccc4)cnn23)cc1
- AC50 [14]: 5.54 µM (active)
- AC50 [15]: 15.3 µM (active)

SMILES: CCCCCCCCCCCCCCCCCCC#CCCCCCCCCCCC(=O)O
- IC50 [16]: > 100 µM (inactive)
- IC50 [17]: > 100 µM (inactive)
- IC50 [18]: 15.2 µM (active)
- IC50 [19]: > 100 µM (not active)

SMILES: O=C(Nc1ccc(Br)cn1)c1ccc([N+](=O)[O-])o1
- IC50 (Vero [20]): > 25 µM (active)
- EC50 [21]: 16.7 µM (active)
- IC50 [22]: 35.9 µM (inactive)
- IC50 [23]: 35.9 µM (inactive)
- IC50 (Steroidogenic factor 1): 35.9 µM (inactive)
- CC50 (Vero [24]): 13.8 µM (active)

SMILES: CCCCNC(=O)Nc1nc2ccccc2s1
- IC50 [25]: > 67.5 µM (inactive)
- IC50 (HEK293): > 67.5 µM (inactive)

SMILES: C/C(=N/NC(=O)C1CCCC1)c1ccc(NC(=O)C(F)(F)F)cc1
- EC50 [26]: 0.802 µM (active)
- AC50 [27]: 12.3 µM (active)

SMILES: O=C(c1ccccc1)N1CCN(c2ccnc3cc(Cl)ccc23)CC1
- AC50 (Candida albicans [28]): 5.68 µM (active)
- AC50 (Candida albicans [29]): 2.05 µM (active)
- AC50 (Candida albicans [30]): 1.69 µM (active)

SMILES: Cn1ccnc1N1CCN(C(=O)c2ccc(Cl)cc2)CC1
- AC50 (Candida albicans [31]): > 260 µM (inactive)
- AC50 (Candida albicans [29]): 224 µM (active)
- AC50 (Candida albicans [30]): 8.2 µM (active)
- AC50 (Candida albicans [32]): 0.587 µM (active)

SMILES: COc1ccc(C(=O)Nc2nc3c(OC)cccc3s2)cc1
- IC50 [33]: 41.9 µM (active)
